Legend:
Assay type in all cases: functional
[1] = test system: Staphylococcus aureus; test: (§1) Antibacterial activity against methicillin-resistant Staphylococcus aureus infected in New Zealand white rabbit osteomyelitis model assessed as change in bacterial load in bone marrow per gram of tissue at 100 ug/mg administered via calcium-deficient apatite on day 3 post infection measured on day 7 by HPLC analysis
[2] = test system: Staphylococcus aureus; test: as §1, with “joint fluid” for “bone marrow”, “tissue” for “tissue at 100 ug/mg”, “via constant iv infusion in presence of unloaded” for “via”, “apatites” for “apatite”
[3] = test system: Staphylococcus aureus; test: (§2) Antibacterial activity against methicillin-resistant Staphylococcus aureus infected in New Zealand white rabbit osteomyelitis model assessed as change in bacterial load in bone marrow per gram of tissue administered via constant iv infusion on day 3 post infection measured on day 7 by HPLC analysis
[4] = test system: Staphylococcus aureus; test: as §2, with “infusion in presence of unloaded calcium-deficient apatites” for “infusion”
[5] = test system: Staphylococcus aureus; test: as §1, with “joint fluid” for “bone marrow”, “25” for “100”
[6] = test system: Staphylococcus aureus; test: as §1, with “bone” for “bone marrow”, “500” for “100”
[7] = test system: Staphylococcus aureus; test: (§3) Antibacterial activity against methicillin-resistant Staphylococcus aureus infected in New Zealand white rabbit osteomyelitis model assessed as change in bacterial load in bone per gram of tissue administered via constant iv infusion on day 3 post infection measured on day 7 by HPLC analysis
[8] = test system: Staphylococcus aureus; test: as §1, with “25” for “100”, “apatite followed by constant iv infusion” for “apatite”
[9] = test system: Staphylococcus aureus; test: as §3, with “tissue at 25 ug/mg” for “tissue”, “via calcium-deficient apatite followed by” for “via”
[10] = test system: Staphylococcus aureus; test: as §1, with “bone” for “bone marrow”, “25” for “100”
[11] = test system: Staphylococcus aureus; test: as §1, with “joint fluid” for “bone marrow”, “apatite followed by constant iv infusion” for “apatite”
[12] = test system: Staphylococcus aureus; test: (§4) Antibacterial activity against methicillin-resistant Staphylococcus aureus infected in New Zealand white rabbit osteomyelitis model assessed as change in bacterial load in joint fluid per gram of tissue administered via constant iv infusion on day 3 post infection measured on day 7 by HPLC analysis
[13] = test system: Staphylococcus aureus; test: as §1, with “25” for “100”
[14] = test system: Staphylococcus aureus; test: as §1, with “500” for “100”, “apatite followed by constant iv infusion” for “apatite”
[15] = test system: Staphylococcus aureus; test: as §1, with “joint fluid” for “bone marrow”, “500” for “100”
[16] = test system: Staphylococcus aureus; test: as §1, with “apatite followed by constant iv infusion” for “apatite”
[17] = test system: Staphylococcus aureus; test: as §1, with “bone” for “bone marrow”
[18] = test system: Staphylococcus aureus; test: as §3, with “infusion in presence of unloaded calcium-deficient apatites” for “infusion”
[19] = test system: Staphylococcus aureus; test: as §1, with “500” for “100”
[20] = test system: Staphylococcus aureus; test: as §4, with “tissue at 500 ug/mg” for “tissue”, “via calcium-deficient apatite followed by” for “via”
[21] = test system: Staphylococcus aureus; test: as §4, with “tissue at 25 ug/mg” for “tissue”, “via calcium-deficient apatite followed by” for “via”
[22] = test system: Staphylococcus aureus; test: as §1, with “joint fluid” for “bone marrow”
[23] = test system: Staphylococcus aureus; test: as §1, with “bone” for “bone marrow”, “apatite followed by constant iv infusion” for “apatite”

CN[C@H](CC(C)C)C(=O)N[C@H]1C(=O)N[C@@H](CC(N)=O)C(=O)N[C@H]2C(=O)N[C@H]3C(=O)N[C@H](C(=O)N[C@H](C(=O)O)c4cc(O)cc(O)c4-c4cc3ccc4O)[C@H](O)c3ccc(c(Cl)c3)Oc3cc2cc(c3O[C@@H]2O[C@H](CO)[C@@H](O)[C@H](O)[C@H]2O[C@H]2C[C@](C)(N)[C@H](O)[C@H](C)O2)Oc2ccc(cc2Cl)[C@H]1O [VANCOMYCIN]
log10cfu [1]: 3.41
log10cfu [2]: 0.3
log10cfu [3]: 0.73
log10cfu [4]: 0.75
log10cfu [5]: 0.56
log10cfu [6]: 3.57
log10cfu [7]: 0.61
log10cfu [8]: -3.14
log10cfu [9]: -2.4
log10cfu [10]: 1.97
log10cfu [11]: 0.9
log10cfu [12]: 0.03
log10cfu [13]: 1.89
log10cfu [14]: 4.21
log10cfu [15]: 0.29
log10cfu [16]: -4.03
log10cfu [17]: 2.35
log10cfu [18]: 0.35
log10cfu [19]: 4.08
log10cfu [20]: 1.69
log10cfu [21]: 0.68
log10cfu [22]: 0.05
log10cfu [23]: -4.63
